Values quoted from earlier work, collected in patent publication US20080103103A1, “Reagents and methods to treat ocular diseases and infection” (priority 2006, published 2008).

Key:
[1] = system: HSV; conditions: HSV early onset
[2] = system: adenovirus
[3] = system: adenovirus; remark: listed apart in the source
[4] = system: adenovirus; conditions: 0.5%
[5] = system: adenovirus; conditions: 0.2%
[6] = system: adenovirus; conditions: 3%, ocular application

Nc1nc2c(ncn2COCCO)c(=O)[nH]1 [Acyclovir]
effectiveness against HSV [1]: effective | effectiveness against adenovirus [2]: not adenovirus

O=C(O[C@@H]1Cc2c(O)cc(O)cc2O[C@@H]1c1cc(O)c(O)c(O)c1)c1cc(O)c(O)c(O)c1 [EGCG, (2R,3R)-2-(3,4,5-Trihydroxyphenyl)-3,4-dihydro-1(2H)-benzopyran-3,5,7-triol 3-(3,4,5-trihydroxybenzoate)]
activity against adenovirus in vitro (viral load) ([3]; in vitro): greatly reducing the viral load | concentration effective for in vitro cultures ([3]; in vitro cultures, adenovirus): 0.005%

Nc1ccn(C[C@@H](CO)OCP(=O)(O)O)c(=O)n1 [cidofovir]
result in animal studies [4]: some positive results | result in clinical trials [5]: failed

CC(=O)OCC(CCn1cnc2cnc(N)nc21)COC(C)=O [famciclovir]
effectiveness against HSV [1]: effective | effectiveness against adenovirus [2]: not adenovirus

Nc1nc(O)c2ncn(COC(CO)CO)c2n1 [gancicolovir]
activity against adenovirus [6]: very minor activity
